System: Plasmodium berghei
Test: Luciferase/luciferin-expressing antifolate-resistant parasites were used to infect a culture of HepG2 cells that were pre-incubated with compounds. Infected hepatocytes emit light due to the luciferase reaction. Assay results are presented as the percent inhibition of light emission compared to control. […]
Format: functional
Details: sporozoite; for IC90: read-out: LUCIFERASE INFECTION ASSAY - IC90
[1] = read-out: LUCIFERASE INFECTION ASSAY - IC50

Row | Compound | IC90 [µM] | IC50 [1] [µM] | also measured
1 | Cc1sc2nc(-c3cccnc3)nc(N3CCOCC3)c2c1-c1ccccc1 | 9.9 | – | IC50 (FFLUC_HILL_SLOPE 7.85, FFLUC_R_SQUARED 0.0779, PBLUC_HILL_SLOPE 15.6, PBLUC_R_SQUARED 0.278, read-out: LUCIFERASE INFECTION ASSAY - IC50): 8.61 µM
2 | c1coc(-c2cn3c(-c4ccsc4)cnc3cn2)c1 | > 12.3 | – | IC50 (FFLUC_HILL_SLOPE 11.6, FFLUC_R_SQUARED 0.514, read-out: LUCIFERASE INFECTION ASSAY - IC50): > 12.3 µM
3 | OC1CCN(c2nn3cc(-c4ccccc4)nc3s2)CC1 | 0.954 | – | IC50 (FFLUC_HILL_SLOPE 1.04, FFLUC_R_SQUARED 0.865, PBLUC_HILL_SLOPE 0.617, PBLUC_R_SQUARED 0.864, read-out: LUCIFERASE INFECTION ASSAY - IC50): 0.0272 µM
4 | Cn1cc(-c2cn3c(-c4ccc(O)cc4)cnc3cn2)cn1 | > 11.3 | – | IC50 (HEPG2TOX_HILL_SLOPE 9.44, HEPG2TOX_R_SQUARED 0.67, PBLUC_HILL_SLOPE 2.21, PBLUC_R_SQUARED 0.503, read-out: LUCIFERASE INFECTION ASSAY - IC50): 6.85 µM
5 | COc1ccc(-c2nnc(SCC(=O)Nc3cc(-c4cc(C)c(C)cc4C)nn3-c3ccccc3)n2C(C)C)cc1 | > 10 | > 10 | –
6 | Cc1ccc(-c2nc3c(s2)CN(C(=O)c2ccco2)CC3)cc1 | 3.19 | – | IC50 (PBLUC_HILL_SLOPE 23.5, PBLUC_R_SQUARED 0.61, read-out: LUCIFERASE INFECTION ASSAY - IC50): 2.9 µM
7 | CC(Cc1cccs1)N(Cc1ccc(Cl)cc1)C(=O)c1cc(S(=O)(=O)N2CCOCC2)c(Cl)cc1Cl (stereo unspecified) | > 10 | – | IC50 (HEPG2TOX_HILL_SLOPE 6.93, HEPG2TOX_R_SQUARED 0.0438, read-out: LUCIFERASE INFECTION ASSAY - IC50): > 10 µM
8 | O=C(CCN1CCN(c2ccccc2)CC1)N/N=C/c1cc(Br)ccc1O | > 10 | – | IC50 (HEPG2TOX_HILL_SLOPE 9.92, HEPG2TOX_R_SQUARED 0.702, PBLUC_HILL_SLOPE 4.41, PBLUC_R_SQUARED 0.46, read-out: LUCIFERASE INFECTION ASSAY - IC50): 6.08 µM
9 | CCCn1c(NC(=O)C2CCN(c3ccc4nnc(C(F)(F)F)n4n3)CC2)nc2ccccc21 | > 10 | 6.49 | –
10 | O=C1/C(=C/c2ccc(F)cc2)CCC/C1=C\c1ccc(F)cc1 | > 10.6 | – | IC50 (HEPG2TOX_HILL_SLOPE 7.08, HEPG2TOX_R_SQUARED 0.955, read-out: LUCIFERASE INFECTION ASSAY - IC50): > 10.6 µM
11 | CNc1snc(C)c1C(=O)NCc1csc(-c2ccccc2)n1 | 4.69 | – | IC50 (HEPG2TOX_HILL_SLOPE 1.65, HEPG2TOX_R_SQUARED 0.956, PBLUC_HILL_SLOPE 1.96, PBLUC_R_SQUARED 0.757, read-out: LUCIFERASE INFECTION ASSAY - IC50): 1.53 µM
12 | Cn1cc(-c2cnc3ccc(Cc4ccc(F)cc4)nn23)cn1 | > 10 | – | IC50 (PBLUC_HILL_SLOPE 1.72, PBLUC_R_SQUARED 0.782, read-out: LUCIFERASE INFECTION ASSAY - IC50): 4.99 µM
13 | C=CCc1ccccc1OCC(O)CN1CCN(c2ccccc2OC)CC1 (stereo unspecified) | > 7.88 | > 7.88 | –
14 | O=C(CN(Cc1ccco1)C(=O)c1ccc(-c2cccc(C(F)(F)F)c2)o1)Nc1ccccc1Br | > 10 | > 10 | –
15 | O=C1C(=C(O)c2ccc(OC(F)F)cc2)Sc2ccccc21 | > 10 | – | IC50 (PBLUC_HILL_SLOPE 4.86, PBLUC_R_SQUARED 0.465, read-out: LUCIFERASE INFECTION ASSAY - IC50): 9.12 µM
16 | Nc1cccc(-c2ccc3ncc(-c4cccc(C(F)(F)F)c4)n3n2)c1 | 2.09 | 1.48 | –
17 | CN(CCCNC(=O)CSc1nnc(-c2c[nH]c3ccccc23)n1C1CC1)c1ccccc1 | 9.32 | – | IC50 (HEPG2TOX_HILL_SLOPE 3.48, HEPG2TOX_R_SQUARED 0.658, PBLUC_HILL_SLOPE 4.72, PBLUC_R_SQUARED 0.65, read-out: LUCIFERASE INFECTION ASSAY - IC50): 5.85 µM
18 | COc1ccc2cc(C3(C)NC(=O)N(Cc4nc(N)nc(Nc5ccc(F)cc5)n4)C3=O)ccc2c1 (stereo unspecified) | > 10 | > 10 | –
19 | Cc1ccc(-c2n[nH]c(=S)n2CCC(=O)NC(C)c2ccc(F)c(F)c2)cc1 (stereo unspecified) | > 10 | > 10 | –
20 | CCN(Cc1ccccc1)S(=O)(=O)c1cc(C(=O)OCc2ccccc2Cl)ccc1OC | > 10 | > 10 | –
21 | CCc1nnc(NC(=O)C2CCCN2S(=O)(=O)c2ccc(OC)cc2)s1 (stereo unspecified) | > 8.32 | 4.85 | –
22 | NC(CCc1ccccc1)c1csc(Nc2cc(NCCCO)ncn2)n1 (stereo unspecified) | > 8.58 | – | IC50 (HEPG2TOX_HILL_SLOPE 1.38, HEPG2TOX_R_SQUARED 0.93, PBLUC_HILL_SLOPE 3.41, PBLUC_R_SQUARED 0.149, read-out: LUCIFERASE INFECTION ASSAY - IC50): 6.73 µM

Row | Compound | IC90 [µM] | IC50 [1] [µM] | also measured
23 | CCN(CC)c1ccc(S(=O)(=O)N2CCCCC2)cc1NC(=O)c1ccc2c(c1)nnn2CC | > 10 | – | IC50 (FFLUC_HILL_SLOPE 1.06, FFLUC_R_SQUARED 0.385, read-out: LUCIFERASE INFECTION ASSAY - IC50): > 10 µM
24 | CCCCCCCCCCCCN1C(=O)CSC1c1cccnc1 (stereo unspecified) | > 9.47 | > 9.47 | –
25 | COc1ccc(-c2cnc3ccc(NCc4ccc(F)cc4)nn23)cc1 | 3.94 | – | IC50 (HEPG2TOX_HILL_SLOPE 2.12, HEPG2TOX_R_SQUARED 0.979, PBLUC_HILL_SLOPE 9.57, PBLUC_R_SQUARED 0.534, read-out: LUCIFERASE INFECTION ASSAY - IC50): 3.13 µM
26 | OC1(c2ccc(F)cc2)CS/C(=N\c2cccnc2)N1Cc1ccco1 (stereo unspecified) | > 10 | – | IC50 (PBLUC_HILL_SLOPE 6.5, PBLUC_R_SQUARED 0.331, read-out: LUCIFERASE INFECTION ASSAY - IC50): 8.78 µM
27 | CCCOc1ccccc1NC(=O)COc1nnc2ccccn12 | > 10 | > 10 | –
28 | CC(C)c1cccc(-c2ccc3nnc(-c4cccc(Cl)c4)n3c2)c1 | > 10 | – | IC50 (PBLUC_HILL_SLOPE 4.48, PBLUC_R_SQUARED 0.207, read-out: LUCIFERASE INFECTION ASSAY - IC50): 6.48 µM
29 | COc1ccccc1NS(=O)(=O)c1ccc2c(c1)N=Cc1c(F)cccc1O2 | > 10 | – | IC50 (FFLUC_HILL_SLOPE 2, FFLUC_R_SQUARED 0.88, HEPG2TOX_HILL_SLOPE 51.5, HEPG2TOX_R_SQUARED 0.639, PBLUC_HILL_SLOPE 12.2, PBLUC_R_SQUARED 0.289, read-out: LUCIFERASE INFECTION ASSAY - IC50): 9.2 µM
30 | Cc1nn(C)c(C)c1CC(=O)Nc1ccc(-n2cnc3ccccc32)cc1 | > 10 | – | IC50 (HEPG2TOX_HILL_SLOPE 0.764, HEPG2TOX_R_SQUARED 0.908, PBLUC_HILL_SLOPE 0.735, PBLUC_R_SQUARED 0.618, read-out: LUCIFERASE INFECTION ASSAY - IC50): 1.31 µM
31 | O=C(NC1CCN(c2nccc(C(F)(F)F)n2)CC1)c1cccs1 | 4.85 | – | IC50 (PBLUC_HILL_SLOPE 2.13, PBLUC_R_SQUARED 0.731, read-out: LUCIFERASE INFECTION ASSAY - IC50): 1.72 µM
32 | COc1ccc(Nc2nc(N)nc(CSc3nc4ccccc4o3)n2)cc1 | 3.53 | – | IC50 (PBLUC_HILL_SLOPE 12.3, PBLUC_R_SQUARED 0.778, read-out: LUCIFERASE INFECTION ASSAY - IC50): 2.95 µM
33 | CN(C)C(=O)Oc1ccc2c(-c3ccccc3)cc(=O)oc2c1 | > 10.7 | – | IC50 (PBLUC_HILL_SLOPE 7.62, PBLUC_R_SQUARED 0.0613, read-out: LUCIFERASE INFECTION ASSAY - IC50): > 10.7 µM
34 | Cc1cc(C(=O)NCCNC(=O)c2cccn2C)c2nc3n(c2n1)CCCCC3 | > 10 | > 10 | –
35 | O=C1c2ccccc2SC1(c1nc2ccccc2s1)c1nc2ccccc2s1 | 9.86 | – | IC50 (FFLUC_HILL_SLOPE 17.4, FFLUC_R_SQUARED 0.735, PBLUC_HILL_SLOPE 16.6, PBLUC_R_SQUARED 0.262, read-out: LUCIFERASE INFECTION ASSAY - IC50): 8.63 µM
36 | CSc1nc(Sc2nnc(-c3ccc(C(C)(C)C)cc3)[nH]2)cc(Sc2nnc(-c3ccc(C(C)(C)C)cc3)[nH]2)n1 | > 5.6 | – | IC50 (PBLUC_HILL_SLOPE 11.3, PBLUC_R_SQUARED 0.117, read-out: LUCIFERASE INFECTION ASSAY - IC50): 5.38 µM
37 | CC(=O)Nc1ccc(/C=C2\COc3c(Cl)cc(Cl)cc3C2=O)cc1 | > 10 | – | IC50 (FFLUC_HILL_SLOPE 4.35, FFLUC_R_SQUARED 0.359, read-out: LUCIFERASE INFECTION ASSAY - IC50): > 10 µM
38 | CSc1c(C#N)c(-c2ccc(Cl)cc2)nn1C(=O)C(C)C | > 10.3 | – | IC50 (PBLUC_HILL_SLOPE 1.94, PBLUC_R_SQUARED 0.662, read-out: LUCIFERASE INFECTION ASSAY - IC50): > 10.3 µM
39 | O=S1(=O)CC(S(=O)(=O)c2cccs2)c2ccccc21 (stereo unspecified) | > 10.5 | > 10.5 | –
40 | Cc1cc(-c2ccc(Cl)cc2)nc2c1c(C)nn2CCO | > 10 | 4.08 | –
41 | CC(Nc1ncnc2sccc12)c1ccc(F)cc1 (stereo unspecified) | 8.6 | – | IC50 (HEPG2TOX_HILL_SLOPE 0.743, HEPG2TOX_R_SQUARED 0.939, PBLUC_HILL_SLOPE 0.968, PBLUC_R_SQUARED 0.762, read-out: LUCIFERASE INFECTION ASSAY - IC50): 0.889 µM
42 | COc1cccc(N(C(=O)c2ccc3c(c2)OCO3)c2nc(-c3ccc(Cl)cc3Cl)cs2)c1 | > 10 | – | IC50 (FFLUC_HILL_SLOPE 8.73, FFLUC_R_SQUARED 0.44, PBLUC_HILL_SLOPE 14.1, PBLUC_R_SQUARED 0.181, read-out: LUCIFERASE INFECTION ASSAY - IC50): 8.64 µM
43 | Cc1cc(NC(=O)Cn2ncc(Br)c(Br)c2=O)n(C)n1 | > 10 | – | IC50 (FFLUC_HILL_SLOPE 13, FFLUC_R_SQUARED 0.376, HEPG2TOX_HILL_SLOPE 25.8, HEPG2TOX_R_SQUARED 0.794, PBLUC_HILL_SLOPE 3.09, PBLUC_R_SQUARED 0.556, read-out: LUCIFERASE INFECTION ASSAY - IC50): 5.35 µM

Reference: ChEMBL document CHEMBL4483862, “Open-source discovery of chemical leads for next-generation chemoprotective antimalarials” (2018)
